Data set [1] has as its target T1, recombinant Raf-1 protein (activated type GST-Raf-1) (Homo sapiens, UniProt P04049).
T1 construct: fused on or other part: GST tag fused to Raf-1
Description: RAF-1 enzyme inhibition test (33P incorporation into MEK 1 protein). The format is biochemical. The following applies: 10 μM ATP, GST-MEK1 substrate, 30° C., 45 minutes; read-out: Raf-1 Enzyme Inhibition, 50% Enzyme Inhibition Concentration (IC50 value). In outline:
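GST-MEK1 (2 μg) was phosphorylated by activated GST-Raf-1 (25 ng) with 10 μM ATP spiked with 33P-ATP, in Tris-HCl pH 7.5 with DTT, NaCl, KF, vanadate and 10 mM MgCl2, for 45 min at 30° C. Protein was precipitated with TCA and radioactivity counted on filters. IC50 was calculated from inhibition relative to a compound-free reference.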

In data set [2] the test system is VEGF non-dependent human umbilical vein endothelial cells (HUVEC). Description: Cell growth inhibition test, VEGF non-dependent HUVEC. The following applies: 72 hours, WST-1, read-out: HUVEC (VEGF Nondependence), 50% Growth Inhibition Concentration (IC50 value). The format is cell-based. The procedure:
(§1) Cell Growth Inhibition Test
(§2) With respect to the compounds relating to the present invention and the known compound (BAY 43-9006), cell growth inhibition activity was measured.
(§3) A sample compound was in-series diluted with dimethyl sulfoxide, and then was 1/50 diluted with a Ca^2+- and Mg^2+-free phosphate-bufferized physiological saline and its 20 μL was poured to a 96-well plate. […] Each of these cell suspensions was dividedly poured to the sample added plate in 180 μL/well and cultured in a 5% carbon dioxide incubator at 37° C. After 72 hours, 20 μL of WST-(HCT 116, a product of Dojin) or WST-1 (HUVEC, a product of Roche diagnostics) was added thereto to each well and the absorbance at 450 nm (reference wavelength: 650 nm) was measured. From the growth inhibition ratio of addition of the sample compound to no-addition of the sample compound as a reference, the 50% growth inhibition IC50) of the sample compound was calculated.
(§4) With respect to the group of representative compounds of the present invention, the IC50 values of HCT 116 and HUVEC (VEGF nondependent growth and VEGF dependent growth) are shown in Tables 5-1 to 5-3.

For data set [3], the system named is VEGF dependent HUVEC. Description: Cell growth inhibition test, VEGF dependent HUVEC. In kind it is cell-based. The following applies: Homo sapiens, 20 ng/mL of VEGF, 72 hours, WST-1, read-out: HUVEC (VEGF Dependence), 50% Growth Inhibition Concentration (IC50 value). How it is done:
as §1, §2, §3, §4

Data set [4] concerns human colorectal cancer cell strain HCT 116. Description: Cell growth inhibition test, HCT 116. The format is cell-based. To be noted: 72 hours, read-out: HCT116, 50% Growth Inhibition Concentration (IC50 value). How it is done: as §1, §2, §3, §4
Data set [5] shares this test system. Put plainly: Antitumor test, HCT 116 inoculated subcutaneously in nude mouse. In kind it is in vivo, male Balb/c nude mouse. To be noted: dosage 200 mg/kg, orally one time a day for 5 days, final administration day. How it is done: as §2
(§5) A cell suspension of a human colorectal cancer cell strain HCT 116 was prepared with a Hunks' balanced salt solution. Its 5.0×10^6 were inoculated subcutaneously to the flank of each male Balb/c nude mouse. When the mean volume of a tumor reached 200 to 250 mm^3, a sample compound was orally administered one time a day for 5 days. The tumor volume was calculated from the calculation formula: 0.5×(minor diameter)^2×(major diameter), and the tumor growth inhibition ratio was calculated from the ratio of the tumor growth of the sample administered group to that of a reference group. The dosage in the antitumor test, the tumor growth inhibition ratio on the final administration day and the reduction in body weight on day 7 after starting administration are shown in Tables 6-1 and 6-2

Data set [6] can be described thus: Antitumor test, reduction in body weight. The format is in vivo, male Balb/c nude mouse. To be noted: dosage 200 mg/kg, orally one time a day for 5 days, day 7 after starting administration. The procedure:
as §5

The nature of data set [7]: Solubility to fasted state simulated intestinal fluid. In kind it is physicochemical. The following applies: fassif, kinetic from dmso stock, fasted state simulated intestinal fluid (pH 6.5), 37° C. In outline:
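DMSO stock of compound added to FaSSIF (pH 6.5; taurocholate, phosphatidylcholine, KH2PO4, KCl) and shaken 20 h at 37° C. Filtrate diluted with ethanol:water 2:1 and read by UV absorbance; solubility taken as sample-to-standard absorbance ratio (blank-corrected) × 165 μM standard.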

Values after ≈ are worked out from the molar mass of the structure shown.

T1 sequence (P04049 349-648 limits assumed): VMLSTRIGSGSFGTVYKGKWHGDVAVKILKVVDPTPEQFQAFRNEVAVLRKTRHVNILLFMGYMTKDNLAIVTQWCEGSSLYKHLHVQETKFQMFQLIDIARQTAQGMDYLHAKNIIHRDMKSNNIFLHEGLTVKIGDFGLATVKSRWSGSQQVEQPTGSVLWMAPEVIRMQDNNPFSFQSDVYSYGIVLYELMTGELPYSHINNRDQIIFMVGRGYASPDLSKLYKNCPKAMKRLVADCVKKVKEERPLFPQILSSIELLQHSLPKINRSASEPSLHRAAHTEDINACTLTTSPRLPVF

`CNc1ncnc2c1ncn2-c1ccc(NC(=O)Nc2ccc(Cl)c(C(F)(F)F)c2)cc1.Cl` [Table 1, Compound 36, 1-(4-Chloro-3-(trifluoromethyl)phenyl)-3-[4-(6-(methylamino)purin-9-yl)phenyl]urea hydrochloride]: the IC50 in data set [1] was found to be 110 nM; in data set [2] it was 250 nM; in data set [3], 79 nM; in data set [4], 700 nM. In data set [5], the “Tumor Inhibition Ratio (%)” value is 81%. Further, in data set [6], the “Body Weight Reduction ratio (%)” value is recorded as 5.9%. The compound further had a solubility at 20 h in data set [7] of 22 µg/mL.
Take `CNC(=O)c1nccc2c1ncn2-c1ccc(NC(=O)Nc2ccc(Cl)c(C(F)(F)F)c2)cc1` [Table 1, Compound 93, 1-{4-[3-(4-Chloro-3-(trifluoro-methyl)phenyl)ureido]phenyl}-1H-imidazo[4,5-c]pyridine-4-carboxylic acid methylamide]: the IC50 in data set [1] was 53 nM. In data set [5], the “Tumor Inhibition Ratio (%)” value stood at 79%. In addition, the “Body Weight Reduction ratio (%)” value in data set [6] is recorded as 6.0%.
For the compound `CCCNC(=O)Nc1ncnc2c1ncn2-c1ccc(NC(=O)Nc2ccc(Cl)c(C(F)(F)F)c2)cc1` [Table 1, Compound 119, 1-(9-{4-[3-(4-Chloro-3-(tri-fluoromethyl)phenyl)ureido]-phenyl}-9H-purin-6-yl)-3-propylurea], the IC50 in data set [1] was determined as 13 nM; in data set [2] it was 970 nM; in data set [3] it was 64 nM; in data set [4] it was 3700 nM. In addition, the “Tumor Inhibition Ratio (%)” value in data set [5] was 89%. The “Body Weight Reduction ratio (%)” value in data set [6] worked out at 8.5%. In data set [7], this compound yielded a solubility at 20 h of 39 µg/mL (≈ 73.2 µM).
With `CNc1ncnc2c1ncn2-c1ccc(NC(=O)Nc2cc(CN3CCN(C)CC3)cc(C(F)(F)F)c2)cc1` [Table 2, Compound 25, 1-[4-(6-(Methylamino)purin-9-yl)phenyl]-3-[3-(4-methyl-piperazin-1-ylmethyl)-5-(tri-fluoromethyl)phenyl]urea], the IC50 in data set [1] worked out at 110 nM; in data set [2] it was 1700 nM; in data set [3] it was 280 nM; in data set [4], 1700 nM. Also, the “Tumor Inhibition Ratio (%)” value in data set [5] is reported as 80%. Moreover, in data set [6], the “Body Weight Reduction ratio (%)” value is given as 2.7%. Besides, in data set [7], the solubility at 20 h was 158 µg/mL (≈ 293 µM).
As for `CN1CCN(Cc2cc(NC(=O)Nc3ccc(-n4cnc5c(N)ncnc54)cc3)cc(C(F)(F)F)c2)CC1` [Table 2, Compound 26], the IC50 in data set [1] is 83 nM. In data set [5], the “Tumor Inhibition Ratio (%)” value was 72%. The “Body Weight Reduction ratio (%)” value in data set [6] came to 5.0%. Further, in data set [7], the concentration in solution (solubility at 20 h) was 61 µg/mL (≈ 116 µM).
The corresponding values for `CNc1ncnc2c1ncn2-c1ccc(NC(=O)Nc2cc(CN(C)C)cc(C(F)(F)F)c2)cc1` [Table 2, Compound 30, 1-(3-Dimethylaminomethyl-5-(trifluoromethyl)phenyl)-3-[4-(6-(methylamino)purin-9-yl)-phenyl]urea] are 190 nM, 131%, 5.7% and 105 µg/mL (≈ 217 µM).

As usually defined, the solubility is the dissolved amount per volume that the medium holds.

Values taken from US8609656B2, “Heteroarylphenylurea derivative” (Chugai Seiyaku Kabushiki Kaisha, priority 2004, dated 2013).
